Values after ≈ are worked out from the molar mass of the structure shown. Read-outs that look alike come from different tables or passages of the source. Bounds are passed on as bounds.

Assay [1] has as its system M. avium 101. The experiment in a line: Broth dilution MIC vs M. avium 101. It is filed as cell-based. The following applies: Mycobacterium avium, modified 7H10 broth, lowest concentration with no turbidity. A general note: Dilution methods test growth across graded concentrations, often in twofold steps.
Assay [2] deals with M. avium (ATCC 25291). The experiment in a line: TAACF M. avium assay. It is filed as cell-based, Mycobacterium avium. To be noted: Mycobacterium avium.
The subject of assay [3] is M. kansasii swank. The experiment in a line: Broth dilution MIC vs M. kansasii swank. The assay is classed as cell-based. The following applies: Mycobacterium kansasii; modified 7H10 broth, lowest concentration with no turbidity.
For assay [4], the system named is VERO cells. The experiment in a line: Cytotoxicity in VERO cells (MTT, 72 hours). The following applies: Chlorocebus sabaeus. It is filed as cell-based.
Assay [5] concerns M. tuberculosis Erdman (ATCC 35801) in monolayers of mouse bone marrow macrophages. The assay is described as follows: Killing of M. tuberculosis Erdman in mouse bone marrow macrophages. The assay is classed as cell-based. The following applies: Mycobacterium tuberculosis, Bone marrow macrophage, 168 h.
Assay [6] relates to M. tuberculosis H37Rv. The experiment in a line: Minimum bactericidal concentration vs H37Rv. It is filed as cell-based. The following applies: Mycobacterium tuberculosis, read-out: MBC vs H37Rv (ug/ml).
Assay [7] deals with M. tuberculosis RMP-R. The experiment in a line: microbe, parasite or virus in culture. It is filed as cell-based. The following applies: Mycobacterium tuberculosis, read-out: MBC vs RMP-R (ug/ml).
The test system of assay [8] is Mycobacterium tuberculosis H37Rv (ATCC 27294). The experiment in a line: TAACF MIC / primary screen vs M. tuberculosis H37Rv (MABA or BACTEC 460). The following applies: for MIC: Mycobacterium tuberculosis; for MIC (ug/mg): Table 1, M. tuberculosis assay. It is filed as cell-based.
Assay [9] deals with M. tuberculosis INH-r. The experiment in a line: microbe, parasite or virus in culture. It is filed as cell-based. The following applies: Mycobacterium tuberculosis, read-out: MBC vs INH-r (ug/ml).
Assay [10] relates to M. tuberculosis ETA-R. The assay is described as follows: MIC vs ETA-R M. tuberculosis. To be noted: Mycobacterium tuberculosis, read-out: MIC ETA-R (ug/ml). It is filed as cell-based.
Assay [11] deals with M. tuberculosis Erdman. The assay is described as follows: MIC vs M. tuberculosis Erdman. To be noted: Mycobacterium tuberculosis, Bactec, strain panel, read-out: MIC Erdman. The assay is classed as cell-based.
Assay [12] has as its system M. tuberculosis EMB-R. The experiment in a line: microbe, parasite or virus in culture. The assay is classed as cell-based. To be noted: Mycobacterium tuberculosis, read-out: MIC EMB-R (ug/ml).
The mark [13] stands for this setting: Bactec, strain panel, read-out: MIC H37Rv.
Where [14] appears, read: ATCC25291, M. avium assay, BACTEC, Tables 2 and 3, read-out: MIC.

Take `CC[C@H]1OC(=O)[C@H](C)[C@@H](O[C@H]2C[C@@](C)(OC)[C@@H](O)[C@H](C)O2)[C@H](C)[C@@H](O[C@@H]2O[C@H](C)C[C@H](N(C)C)[C@H]2O)[C@](C)(OC)C[C@@H](C)C(=O)[C@H](C)[C@@H](O)[C@]1(C)O` [Clarithromycin, reference compound]: the MIC is 2 µg/mL (≈ 2.67 µM) in assay [1] and 2 µg/mL (≈ 2.67 µM) in assay [2] (ATCC25291, reference control, read-out: MIC Clarithromycin vs. M. avium (control in Comment column)).
By IC50 is commonly meant the midpoint of a concentration-inhibition curve. A lower IC50 goes with greater potency in that assay. Broadly, the EC90 is the concentration at which the effect reaches the 90% level. By EC99 is commonly meant the point of the concentration-response curve where the effect stands at 99%. A lower EC99 goes with an effect from little substance. `NNC(=O)c1ccncc1` [INH, isonicotinic acid hydrazide, reference compound] registered an MIC in assay [3] of 1 µg/mL (≈ 7.29 µM). The IC50 in [4] was > 1000 µg/mL. Also, in [5], it took 0.21 µg/mL (≈ 1.53 µM) to reach the 90% level (EC90) and the EC99 was > 0.4 µg/mL.
With `CCC/C(CC(=O)OCC)=N/NC(=O)c1ccncc1` [Sample ID 101702], the MBC in assay [6] was ≥ 0.19 µg/mL; in assay [7], 0.39 µg/mL (≈ 1.41 µM); in assay [9], > 12.5 µg/mL. Also, the MIC in assay [8] (M. tuberculosis assay, Alamar, Tables 7 and 9) is 0.39 µg/mL (≈ 1.41 µM).
For the compound `CCOC(=O)/C(CCc1ccccc1)=N\NC(=O)c1ccncc1` [Sample ID 132358], the MIC in [10] is 0.8 µg/mL (≈ 2.46 µM); in [8] (setting [13]), 0.1 µg/mL (≈ 0.307 µM); in [11] it was 0.1 µg/mL (≈ 0.307 µM); in [12], > 3.2 µg/mL; in assay [2] (setting [14]), > 3.2 µg/mL. Further, in [8] (Bactec), the “MIC (ug/mg)” value is 0.1 µg/mL (≈ 0.307 µM).
On to `O=C(N/N=C/C=C(c1ccccc1)c1ccccc1)c1ccncc1` [Sample ID 132532], for which the MIC was 1.6 µg/mL (≈ 4.89 µM) in [10]; 0.1 µg/mL (≈ 0.305 µM) in assay [8] (setting [13]); 0.1 µg/mL (≈ 0.305 µM) in assay [11]; > 3.2 µg/mL in assay [12]; > 3.2 µg/mL in assay [2] (setting [14]). For the same compound, the “MIC (ug/mg)” value in assay [8] (Bactec) is 0.1 µg/mL (≈ 0.305 µM).

For the origin of these results see patent publication US6846933B1, “Antimycobacterial compounds and method for making the same” (priority 2000, dated 2005).
